This is an account of results in US10231954B2, “Neurodegenerative therapies” (LYTIX BIOPHARMA AS, priority 2014, dated 2019).

The structures appear in SMILES notation. Like-named read-outs stand apart in the source and are kept apart here.

Common to all, as to format: biochemical
Experiment [1] addresses YES1 (Homo sapiens, UniProt P07947). The experiment is described as follows: Kinase profiling YES1. The note with it: for remaining activity at 100 µM: read-out: residual kinase activity, YES1. From the text:
(§1) Any value less that 25 is considered to be highly significant inhibition.

Experiment [2] has as its target CDK9-Cyclin T1 (Homo sapiens, UniProt P50750). Put plainly: Kinase profiling CDK9-Cyclin T1. The note with it: for remaining activity at 100 µM: read-out: residual kinase activity, CDK9-Cyclin T1.
Text: as §1

The target in experiment [3] is MARK1 (Homo sapiens, UniProt Q9P0L2). Put plainly: Kinase profiling MARK1. The note with it: for remaining activity at 100 µM: read-out: residual kinase activity, MARK1.
Text: as §1

Experiment [4] concerns the target T1, EPH-B2 (Homo sapiens, UniProt P29323).
T1 sequence (P29323 19-1055): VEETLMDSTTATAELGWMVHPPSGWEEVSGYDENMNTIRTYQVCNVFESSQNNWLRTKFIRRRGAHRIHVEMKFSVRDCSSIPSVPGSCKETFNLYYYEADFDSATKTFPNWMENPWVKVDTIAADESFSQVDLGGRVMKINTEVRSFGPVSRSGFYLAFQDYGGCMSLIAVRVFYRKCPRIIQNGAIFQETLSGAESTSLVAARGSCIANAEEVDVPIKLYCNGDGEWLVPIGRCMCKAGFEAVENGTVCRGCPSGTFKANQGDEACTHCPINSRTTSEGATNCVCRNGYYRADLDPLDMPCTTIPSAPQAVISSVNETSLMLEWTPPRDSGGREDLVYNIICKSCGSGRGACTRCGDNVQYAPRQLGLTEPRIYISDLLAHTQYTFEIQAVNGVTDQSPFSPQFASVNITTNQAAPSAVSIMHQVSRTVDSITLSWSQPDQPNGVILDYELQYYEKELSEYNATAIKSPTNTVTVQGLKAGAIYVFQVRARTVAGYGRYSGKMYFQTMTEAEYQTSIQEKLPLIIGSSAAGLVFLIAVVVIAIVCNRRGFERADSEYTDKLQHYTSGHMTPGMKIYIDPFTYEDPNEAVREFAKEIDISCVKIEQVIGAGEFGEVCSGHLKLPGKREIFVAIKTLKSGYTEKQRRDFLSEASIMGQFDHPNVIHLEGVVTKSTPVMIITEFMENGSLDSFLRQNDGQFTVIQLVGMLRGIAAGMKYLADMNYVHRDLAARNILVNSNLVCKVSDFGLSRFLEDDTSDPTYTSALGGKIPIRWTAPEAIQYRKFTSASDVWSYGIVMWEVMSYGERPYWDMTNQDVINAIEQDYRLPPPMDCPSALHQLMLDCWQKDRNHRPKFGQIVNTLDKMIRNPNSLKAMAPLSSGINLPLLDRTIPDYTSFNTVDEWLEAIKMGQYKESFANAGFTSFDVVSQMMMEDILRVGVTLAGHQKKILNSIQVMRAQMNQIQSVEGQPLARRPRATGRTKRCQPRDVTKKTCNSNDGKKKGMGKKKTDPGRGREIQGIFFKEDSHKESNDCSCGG
Put plainly: Kinase profiling EPH-B2. The note with it: for remaining activity at 100 µM: read-out: residual kinase activity, EPH-B2.
Text: as §1

Experiment [5] has as its target TTBK2 (Homo sapiens, UniProt Q6IQ55). Put plainly: Kinase profiling TTBK2. The note with it: for remaining activity at 100 µM: read-out: residual kinase activity, TTBK2.
Text: as §1

The target in experiment [6] is T2, ULK1 (Homo sapiens, UniProt O75385).
T2 sequence (O75385 1-1050): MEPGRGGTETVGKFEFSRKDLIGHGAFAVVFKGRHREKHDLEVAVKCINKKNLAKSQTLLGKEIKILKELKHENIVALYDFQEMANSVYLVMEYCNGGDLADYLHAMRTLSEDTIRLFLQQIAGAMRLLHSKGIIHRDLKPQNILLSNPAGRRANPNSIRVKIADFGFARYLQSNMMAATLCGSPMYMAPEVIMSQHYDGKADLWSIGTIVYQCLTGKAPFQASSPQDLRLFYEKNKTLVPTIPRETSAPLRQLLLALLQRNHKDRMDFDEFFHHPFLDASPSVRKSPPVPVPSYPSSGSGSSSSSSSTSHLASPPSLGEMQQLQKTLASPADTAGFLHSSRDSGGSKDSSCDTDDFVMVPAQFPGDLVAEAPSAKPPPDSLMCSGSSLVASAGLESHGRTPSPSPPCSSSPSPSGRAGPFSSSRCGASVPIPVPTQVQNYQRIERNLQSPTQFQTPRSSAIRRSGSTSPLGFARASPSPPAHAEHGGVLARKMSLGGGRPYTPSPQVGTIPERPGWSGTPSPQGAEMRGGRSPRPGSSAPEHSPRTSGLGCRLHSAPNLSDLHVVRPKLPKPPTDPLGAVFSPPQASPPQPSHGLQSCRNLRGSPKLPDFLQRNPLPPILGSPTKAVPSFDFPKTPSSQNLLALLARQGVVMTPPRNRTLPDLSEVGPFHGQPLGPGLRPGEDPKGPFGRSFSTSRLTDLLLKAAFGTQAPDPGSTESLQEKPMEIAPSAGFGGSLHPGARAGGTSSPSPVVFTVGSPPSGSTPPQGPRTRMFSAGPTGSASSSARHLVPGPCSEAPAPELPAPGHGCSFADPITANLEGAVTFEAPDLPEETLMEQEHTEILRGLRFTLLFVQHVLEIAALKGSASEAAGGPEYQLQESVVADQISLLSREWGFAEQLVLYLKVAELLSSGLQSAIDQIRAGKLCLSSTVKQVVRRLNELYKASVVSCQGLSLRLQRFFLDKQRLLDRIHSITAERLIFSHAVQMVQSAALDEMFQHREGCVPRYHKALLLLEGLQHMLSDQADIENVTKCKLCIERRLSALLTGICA
The experiment is described as follows: Kinase profiling ULK1. The note with it: for remaining activity at 100 µM: read-out: residual kinase activity, ULK1.
Text: as §1

Where [7] appears, read: 100 micromolar inhibitor concentration, 100 is no change.
Setting [8] is: 100 micromolar inhibitor, 100 = no change.

Chain of CDK9-Cyclin T1 (P50750 whole entry): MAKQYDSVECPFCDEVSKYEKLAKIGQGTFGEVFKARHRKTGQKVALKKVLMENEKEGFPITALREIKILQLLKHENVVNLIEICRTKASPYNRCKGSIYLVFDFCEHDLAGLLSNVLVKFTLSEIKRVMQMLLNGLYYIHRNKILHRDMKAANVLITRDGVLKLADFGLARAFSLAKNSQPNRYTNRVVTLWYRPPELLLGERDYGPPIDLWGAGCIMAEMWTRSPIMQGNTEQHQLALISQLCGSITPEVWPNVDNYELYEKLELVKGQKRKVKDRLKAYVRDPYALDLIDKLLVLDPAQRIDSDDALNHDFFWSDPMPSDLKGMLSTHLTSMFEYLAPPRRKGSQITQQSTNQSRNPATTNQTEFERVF
Chain of CDK9-Cyclin T1 (O60563 whole entry partner): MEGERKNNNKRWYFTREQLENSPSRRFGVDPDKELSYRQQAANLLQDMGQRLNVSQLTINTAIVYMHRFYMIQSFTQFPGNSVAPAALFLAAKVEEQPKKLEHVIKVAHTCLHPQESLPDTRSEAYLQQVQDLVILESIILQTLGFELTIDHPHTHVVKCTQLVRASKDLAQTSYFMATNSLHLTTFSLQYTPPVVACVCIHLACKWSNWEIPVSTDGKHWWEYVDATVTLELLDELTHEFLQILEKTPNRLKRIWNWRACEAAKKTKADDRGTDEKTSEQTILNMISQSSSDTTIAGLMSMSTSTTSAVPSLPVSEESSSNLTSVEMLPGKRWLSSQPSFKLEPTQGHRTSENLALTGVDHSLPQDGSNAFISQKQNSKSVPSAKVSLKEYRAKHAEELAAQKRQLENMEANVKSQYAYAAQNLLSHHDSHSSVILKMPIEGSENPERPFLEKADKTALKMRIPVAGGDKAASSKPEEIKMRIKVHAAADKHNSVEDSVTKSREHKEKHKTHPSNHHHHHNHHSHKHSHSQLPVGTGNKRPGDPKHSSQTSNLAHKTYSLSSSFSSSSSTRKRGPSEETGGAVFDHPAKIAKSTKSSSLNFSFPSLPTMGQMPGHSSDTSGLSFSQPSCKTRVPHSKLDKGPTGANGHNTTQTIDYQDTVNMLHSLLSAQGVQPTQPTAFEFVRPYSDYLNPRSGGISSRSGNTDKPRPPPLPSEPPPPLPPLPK
Chain of TTBK2 (Q6IQ55 whole entry, species assumed): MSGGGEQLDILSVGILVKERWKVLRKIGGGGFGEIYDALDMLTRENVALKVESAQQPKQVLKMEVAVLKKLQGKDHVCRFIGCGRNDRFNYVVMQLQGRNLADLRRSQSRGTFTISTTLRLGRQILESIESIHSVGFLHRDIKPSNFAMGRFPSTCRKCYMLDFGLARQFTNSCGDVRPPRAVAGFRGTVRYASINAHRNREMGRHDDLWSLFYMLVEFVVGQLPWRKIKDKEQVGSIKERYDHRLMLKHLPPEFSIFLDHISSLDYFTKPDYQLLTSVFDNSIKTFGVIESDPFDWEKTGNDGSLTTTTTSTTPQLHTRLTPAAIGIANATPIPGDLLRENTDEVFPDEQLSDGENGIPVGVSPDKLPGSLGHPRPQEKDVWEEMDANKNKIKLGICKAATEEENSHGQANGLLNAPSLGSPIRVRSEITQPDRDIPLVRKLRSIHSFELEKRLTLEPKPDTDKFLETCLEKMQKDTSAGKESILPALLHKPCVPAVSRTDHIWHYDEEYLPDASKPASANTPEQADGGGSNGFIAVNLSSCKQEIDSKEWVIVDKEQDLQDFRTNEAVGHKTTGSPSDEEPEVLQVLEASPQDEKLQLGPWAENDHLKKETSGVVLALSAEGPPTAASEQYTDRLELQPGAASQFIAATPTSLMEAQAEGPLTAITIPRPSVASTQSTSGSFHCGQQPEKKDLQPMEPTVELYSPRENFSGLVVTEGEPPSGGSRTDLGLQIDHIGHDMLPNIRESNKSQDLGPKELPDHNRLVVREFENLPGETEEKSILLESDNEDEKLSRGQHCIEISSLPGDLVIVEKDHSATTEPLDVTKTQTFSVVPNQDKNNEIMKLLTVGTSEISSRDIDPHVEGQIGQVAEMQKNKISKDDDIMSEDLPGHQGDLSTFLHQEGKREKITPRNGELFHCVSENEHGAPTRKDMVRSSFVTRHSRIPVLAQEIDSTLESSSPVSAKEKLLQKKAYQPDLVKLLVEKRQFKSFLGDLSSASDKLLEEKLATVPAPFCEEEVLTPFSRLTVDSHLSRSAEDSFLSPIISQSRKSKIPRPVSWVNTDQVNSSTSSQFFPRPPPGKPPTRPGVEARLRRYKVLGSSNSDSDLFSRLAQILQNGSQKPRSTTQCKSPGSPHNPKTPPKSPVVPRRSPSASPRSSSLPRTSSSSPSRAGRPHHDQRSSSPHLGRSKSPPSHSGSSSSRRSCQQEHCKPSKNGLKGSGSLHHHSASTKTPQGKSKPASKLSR
Chain of MARK1 (Q9P0L2 whole entry, species assumed): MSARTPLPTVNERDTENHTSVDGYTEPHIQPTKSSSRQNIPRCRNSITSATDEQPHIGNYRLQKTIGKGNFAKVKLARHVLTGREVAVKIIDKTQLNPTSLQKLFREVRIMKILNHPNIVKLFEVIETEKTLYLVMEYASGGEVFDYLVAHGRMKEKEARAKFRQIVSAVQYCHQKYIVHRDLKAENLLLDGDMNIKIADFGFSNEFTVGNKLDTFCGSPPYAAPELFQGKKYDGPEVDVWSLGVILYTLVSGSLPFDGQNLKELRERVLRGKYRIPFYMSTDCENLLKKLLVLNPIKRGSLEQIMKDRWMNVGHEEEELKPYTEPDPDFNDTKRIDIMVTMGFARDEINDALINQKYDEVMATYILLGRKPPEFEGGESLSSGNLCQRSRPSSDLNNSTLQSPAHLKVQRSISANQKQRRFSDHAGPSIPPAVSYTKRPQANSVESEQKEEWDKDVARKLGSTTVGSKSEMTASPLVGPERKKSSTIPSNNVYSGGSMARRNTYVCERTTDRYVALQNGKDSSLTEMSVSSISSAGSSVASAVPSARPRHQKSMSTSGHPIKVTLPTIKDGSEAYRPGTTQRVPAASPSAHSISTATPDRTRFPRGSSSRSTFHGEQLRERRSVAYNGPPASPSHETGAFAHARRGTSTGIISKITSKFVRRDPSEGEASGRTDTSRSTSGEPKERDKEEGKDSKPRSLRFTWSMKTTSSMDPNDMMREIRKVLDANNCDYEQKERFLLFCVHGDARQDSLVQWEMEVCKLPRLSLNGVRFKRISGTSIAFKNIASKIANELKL
Chain of YES1 (P07947 whole entry, species assumed): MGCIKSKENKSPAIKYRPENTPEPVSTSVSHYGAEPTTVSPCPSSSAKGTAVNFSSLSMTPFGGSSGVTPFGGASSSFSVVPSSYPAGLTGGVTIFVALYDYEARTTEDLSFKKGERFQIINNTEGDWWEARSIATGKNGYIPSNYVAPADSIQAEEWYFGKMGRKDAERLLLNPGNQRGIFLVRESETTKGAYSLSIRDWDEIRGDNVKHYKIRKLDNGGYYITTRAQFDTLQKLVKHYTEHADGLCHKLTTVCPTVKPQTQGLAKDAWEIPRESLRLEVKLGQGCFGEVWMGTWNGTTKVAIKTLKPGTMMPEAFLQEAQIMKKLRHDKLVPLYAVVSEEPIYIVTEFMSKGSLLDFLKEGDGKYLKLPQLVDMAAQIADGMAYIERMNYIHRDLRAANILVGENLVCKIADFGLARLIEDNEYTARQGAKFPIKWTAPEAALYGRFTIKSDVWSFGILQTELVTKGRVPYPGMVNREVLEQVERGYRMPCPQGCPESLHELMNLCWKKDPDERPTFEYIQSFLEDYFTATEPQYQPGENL

Take `CC(=O)Nc1nc2cc(O)ccc2s1` [Compound 01-66, N-(5-hydroxybenzo[d]thiazol-2-yl)acetamide]: the remaining activity at 100 µM in experiment [1] was found to be 72%; in experiment [2], 85%; in experiment [3], 56%; in experiment [4] it was 70%.

`CC(=O)Nc1nc2ccc(O)cc2s1` [Compound 01-71]: the remaining activity at 100 µM in experiment [1] (setting [7]) was determined as 59%; in experiment [2] (setting [7]) it was 48%; in experiment [3] (setting [7]) it was 33%; in experiment [4] (setting [7]), 59%.

As to `CC(=O)Nc1nc2ccc(C(F)(F)F)cc2s1` [Compound 01-90], the remaining activity at 100 µM in experiment [1] (setting [7]) was 57%; in experiment [2] (setting [7]), 26%; in experiment [3] (setting [7]), 90%; in experiment [5] (setting [7]) it was 98%; in experiment [4] (setting [7]), 38%; in experiment [6] (setting [7]) it was 87%.

Consider `CC(=O)Nc1nc2ccc(C#N)cc2s1` [Compound 01-94], for which the remaining activity at 100 µM in experiment [1] (setting [7]) came out at 86%; in experiment [2] (setting [7]) it was 15%; in experiment [3] (setting [7]) it was 60%; in experiment [5] (setting [7]), 78%; in experiment [4] (setting [7]) it was 42%; in experiment [6] (setting [7]), 92%.

Take `CC(=O)Nc1cccc(NC(=O)c2nc3ccc(O)cc3s2)c1` [Compound 03-07, N-(3-acetamidophenyl)-6-hydroxybenzo[d]thiazole-2-carboxamide]: the remaining activity at 100 µM in experiment [1] (setting [8]) is 49%; in experiment [2] (setting [8]) it was 76%; in experiment [3] (setting [8]), 106%; in experiment [5] (setting [8]), 71%; in experiment [4] (setting [8]) it was 110%; in experiment [6] (setting [8]), 70%.

Consider `O=C(Nc1nc2cc(O)ccc2s1)c1ccncc1` [Compound 03-11], for which, in experiment [1] (setting [7]), the “residual kinase activity, YES1” value was 82. For the same compound, the “residual kinase activity, CDK9-Cyclin T1” value in experiment [2] (setting [7]) amounted to 68. Besides, in experiment [3] (setting [7]), the “residual kinase activity, MARK1” value is listed as 90. Besides, the “residual kinase activity, TTBK2” value in experiment [5] (setting [7]) amounted to 99. Also, in experiment [4] (setting [7]), the “residual kinase activity, EPH-B2” value is 89. In experiment [6] (setting [7]), the “residual kinase activity, ULK1” value was determined as 90.

As for `O=C(Nc1nc2ccc(O)cc2s1)c1ccccn1` [Compound 03-12], the “residual kinase activity, YES1” value in experiment [1] (setting [7]) was 73. In addition, the “residual kinase activity, CDK9-Cyclin T1” value in experiment [2] (setting [7]) was 76. Moreover, in experiment [3] (setting [7]), the “residual kinase activity, MARK1” value amounted to 89. For the same compound, in experiment [5] (setting [7]), the “residual kinase activity, TTBK2” value is 102. Further, the “residual kinase activity, EPH-B2” value in experiment [4] (setting [7]) is reported as 103. Also, the “residual kinase activity, ULK1” value in experiment [6] (setting [7]) amounted to 96.

`O=C(Nc1nc2cc(O)ccc2s1)c1ccccn1` [Compound 03-13]: the “residual kinase activity, YES1” value in experiment [1] (setting [7]) was found to be 60. The “residual kinase activity, CDK9-Cyclin T1” value in experiment [2] (setting [7]) was found to be 93. Also, the “residual kinase activity, MARK1” value in experiment [3] (setting [7]) is on record as 99. The “residual kinase activity, TTBK2” value in experiment [5] (setting [7]) turned out to be 71. For the same compound, the “residual kinase activity, EPH-B2” value in experiment [4] (setting [7]) worked out at 72. The “residual kinase activity, ULK1” value in experiment [6] (setting [7]) is 78.

For the compound `COc1ccc2sc(NC(C)=O)nc2c1` [Compound 03-21], the remaining activity at 100 µM was 93% in experiment [1] (setting [7]); 90% in experiment [2] (setting [7]); 98% in experiment [3] (setting [7]); 84% in experiment [5] (setting [7]); 96% in experiment [4] (setting [7]); 103% in experiment [6] (setting [7]).

`CC(=O)Nc1nc2ccccc2s1` [Compound 03-32]: the “residual kinase activity, YES1” value in experiment [1] (setting [7]) was found to be 93. Also, in experiment [2] (setting [7]), the “residual kinase activity, CDK9-Cyclin T1” value is 45. Further, the “residual kinase activity, MARK1” value in experiment [3] (setting [7]) is on record as 77. Besides, the “residual kinase activity, TTBK2” value in experiment [5] (setting [7]) amounted to 85. For the same compound, the “residual kinase activity, EPH-B2” value in experiment [4] (setting [7]) was 116. For the same compound, the “residual kinase activity, ULK1” value in experiment [6] (setting [7]) amounted to 102.

`O=C(Nc1nc2cc(O)ccc2s1)c1cccnc1` [Compound 03-33]: the “residual kinase activity, YES1” value in experiment [1] (setting [7]) is listed as 91. The “residual kinase activity, CDK9-Cyclin T1” value in experiment [2] (setting [7]) came to 97. Also, in experiment [3] (setting [7]), the “residual kinase activity, MARK1” value was 103. The “residual kinase activity, TTBK2” value in experiment [5] (setting [7]) came to 102. For the same compound, the “residual kinase activity, EPH-B2” value in experiment [4] (setting [7]) is recorded as 99. Besides, in experiment [6] (setting [7]), the “residual kinase activity, ULK1” value amounted to 88.
